# Experimental data as given in article PMC12391994, “Synthesis of a fac-Tricarbonylrhenium(I) Complex with Pyrithione, Its Physicochemical Characterization, and Assessment of Biological Effects” (ACS Omega, 2025).
# Like-named read-outs stand apart in the source and are kept apart here.
# Key:
# [1] = target: T1, cathepsin B (endopeptidase activity) (Homo sapiens, UniProt P07858); assay: Relative inhibition of cathepsin B endopeptidase activity; format: biochemical; details: for relative inhibition cathepsin B endopeptidase: 50 μM, substrate Z-Arg-Arg-AMC, pH 6.0
# T1 construct: made in house; host or cells: E. coli
# Text: (§1) Relative inhibition is expressed as a percentage of the decrease in reaction velocity in the presence of an inhibitor, in comparison to the reaction velocity in the absence of an inhibitor. For that purpose, the specific fluorogenic substrates Z-Arg-Arg-7-amido-4-methylcoumarin (Z-Arg-Arg-AMC) and 2-aminobenzoyl (Abz)-Gly-Ile-Val-Arg-Ala-Lys-(Dnp)-OH were used for cathepsin B endopeptidase and exopeptidase activities, respectively, and Z-Phe-Arg-AMC was used for cathepsin L and V activities.
# (§2) Human recombinant cathepsin B was expressed in E. coli, recombinant cathepsin V was expressed in Pichia pastoris, and human recombinant cathepsin L was expressed in E. coli, as reported. − For the determination of cathepsin B endopeptidase and exopeptidase activities, 100 mM phosphate buffer (pH 6.0) and 60 mM acetate buffer (pH 5.0) were used, respectively, and for the determination of cathepsin V and L activities, 100 mM acetate buffer (pH 5.5) was used. All buffers contained 0.1% PEG 8000 (Sigma-Aldrich, St. Louis, MO), 5 mM cysteine, and 1.5 mM EDTA. Prior to the assay, the enzymes were activated in the assay buffer for 5 min at 37 °C.
# (§3) To determine the effect of inhibitors on enzyme activity, the following substrates were used: Z-Arg-Arg-AMC (final concentration 5 μM, Z-RR-AMC; Bachem, Bubendorf, Switzerland) for cathepsin B endopeptidase activity, Abz-Gly-Ile-Val-Arg-Ala-Lys-(Dnp)-OH (final concentration 1 μM, Abz-GIVRAK-(Dnp)-OH; Bachem) for cathepsin B exopeptidase activity, and Z-Phe-Arg-AMC (final concentration 2 μM, Z-FR-AMC; Bachem) for cathepsin V and L activity. The substrate ([…]) at a final concentration and inhibitor ([…]) at a concentration of 50 μM were added to the wells of a black microplate. The reaction was then initiated by adding 90 μL of activated enzyme (final concentrations: 5 nM cathepsin B for its endopeptidase activity, 0.5 nM cathepsin B for its exopeptidase activity, 2.5 ng/mL for cathepsin V, and 0.02 nM for cathepsin L) in the assay buffer. The formation of fluorescent degradation products during the reaction was continuously monitored at 460 ± 10 nm with excitation at 380 ± 20 nm for Z-Arg-Arg-AMC and Z-Phe-Arg-AMC and at 420 ± 10 nm with excitation at 320 ± 20 nm for Abz-Gly-Ile-Val-Arg-Ala-Lys(Dnp)-OH at 37 °C on a Tecan Infinite M1000 (Mannedorf, Switzerland) spectrofluorometer. All assay mixtures contained 5% (v/v) DMSO. To prevent false-positive inhibition due to the formation of compound aggregates, 0.01% Triton X-100 was used. All measurements were performed in triplicate and repeated twice. The relative inhibition was calculated using the following equation: relative inhibition (%) = 100(1 – v i/v o), where v i and v o designate the reaction velocities in the presence and absence of inhibitor, respectively.
# [2] = target: T2, cathepsin B (exopeptidase activity) (Homo sapiens, UniProt P07858); assay: Relative inhibition of cathepsin B exopeptidase activity; format: biochemical; details: 50 μM; substrate Abz-Gly-Ile-Val-Arg-Ala-Lys-(Dnp)-OH; pH 5.0
# T2 construct: made in house; host or cells: E. coli
# Text: as §1, §2, §3
# [3] = target: T3, cathepsin L (Homo sapiens, UniProt P07711); assay: Relative inhibition of cathepsin L; format: biochemical; details: for relative inhibition cathepsin L: 50 μM, substrate Z-Phe-Arg-AMC, pH 5.5
# T3 construct: made in house; host or cells: E. coli
# Text: as §1, §2, §3
# [4] = target: T4, cathepsin V (Homo sapiens, UniProt O60911); assay: Relative inhibition of cathepsin V; format: biochemical; details: for relative inhibition cathepsin V: 50 μM, substrate Z-Phe-Arg-AMC, pH 5.5
# T4 construct: made in house; host or cells: Pichia pastoris
# Text: as §1, §2, §3
# [5] = target: T5, human serum albumin (HSA) (Homo sapiens, UniProt P02768); details: reported value for similar complex; cited from earlier work
# T5 construct: purchased Sigma-Aldrich/Merck A8763
# [6] = tested on: S. aureus ATCC 25923; set-up: method as in our previous work; details: only on S. aureus strain; ref our previous work; cited from earlier work
# [7] = tested on: HSV-2; set-up: method as in our previous work; details: ref our previous work; cited from earlier work
# [8] = pH-dependent UV-vis spectrophotometry (solution speciation, pKa of aqua ligand); format: physicochemical
# Text: However, at pH > ∼8, the spectrum changes considerably (Figure ).
# The isosbestic point indicates a single equilibrium process, which is most likely deprotonation of the coordinated aqua ligand in complex 4a. This process was studied in our previous work for similar fac-[Re(CO)3] complexes formed with (N,N)-bearing ligands, and the calculated pK a (H2O) is around 8. […] Similar pK a values in the presence and absence of the chloride ions indicate a low chloride affinity of the aqua complex. Based on these values, the fraction of [Re(CO)3(pth)(H2O)] is 100% at pH = 7.4. The analogous half-sandwich complex [Ru(cym)(pth)(H2O)]^+ was also characterized by high solution stability, and a similarly high pK a value (10.34 (0.2 M KCl)).
# For the solution studies, an Agilent Cary 3500 spectrophotometer was utilized to obtain UV–vis spectra in the wavelength range of 200–1100 nm. The path length ( l ) was 1 cm in all cases. The concentrations of the complex were between 10 and 60 μM. For investigation of the effect of chloride ions, the samples contained 60 μM complex and 0–7300 equiv of Cl^–. For HSA-containing samples, complex concentrations were 60 μM, and 0.5 equiv of biomolecule (or 6 equiv of MIM) was added for kinetic studies, respectively. Individual samples contained 0–34 μM HSA. The computer program HypSpec was used to obtain equilibrium constants.
# [9] = tested on: Colo205 cells; assay: MTT cytotoxicity assay, Colo205; format: cell-based, human; details: Homo sapiens, read-out: IC50 Colo205
# Experimental: (§4) Its cytotoxicity was determined in the human HeLa cervical cancer cell line, the drug-sensitive Colo205 and its resistant counterpart, the ABCB1 expressing Colo320 colon adenocarcinoma cancer cell lines, using the colorimetric 3-(4,5-dimethylthiazol-2-yl)-2,5-diphenyltetrazolium bromide (MTT) test. To investigate the selectivity toward cancer cells, the noncancerous fibroblast CCD-19Lu cell line was included.
# Drug-sensitive Colo205 (ATCC-CCL-222) and ABCB1 (MDR1)-LRP expressing and doxorubicin-resistant Colo320/MDR-LRP (ATCC-CCL-220.1) human colonic adenocarcinoma cell lines were purchased from LGC Promochem (Teddington, U.K.). The cells were cultured in RPMI 1640 medium supplemented with 10% heat-inactivated fetal bovine serum, 2 mM L-glutamine, 1 mM Na-pyruvate, and 10 mM HEPES.
# (§5) The tested compound was dissolved in DMSO to prepare a 5 mM stock solution, which was diluted in complete culture medium, to study the effect of compounds on cell growth of human colonic adenocarcinoma cell lines. Doxorubicin was used as the positive control. The cells were treated with a trypsin-versene (EDTA) solution. Cells were adjusted to a density of 1 × 10^4 cells in 100 μL of the appropriate culture medium and were added to each well, with the exception of the medium control wells. Except for the semiadherent Colo205 and Colo320 cell lines, the other adherent cell lines were seeded 24 h prior to the assay. Then, stock solutions were diluted in the appropriate culture medium, and 2-fold serial dilutions of compounds were prepared in 100 μL of the medium, horizontally. The final volume of the wells containing compounds and cells was 200 μL. The plates were incubated at 37 °C for 72 h; at the end of the incubation period, 20 μL of MTT solution (from a stock solution of 5 mg/mL) was added to each well. […] Cell growth was determined by measuring the optical density (OD) at 540/630 nm with a Multiscan EX ELISA reader (Thermo Labsystems, Cheshire, WA). […]
# [10] = tested on: CCD-19Lu cells; assay: MTT cytotoxicity assay, CCD-19Lu; format: cell-based, human; details: Homo sapiens, CCD 19Lu, 72 h incubation, noncancerous fibroblast
# Experimental: as §4
# as §5, with “horizontally.” for “horizontally. The final volume of the wells containing compounds and cells was 200 μL. The plates were incubated at 37 °C for 72 h; at the end of the incubation period, 20 μL of MTT solution (from a stock solution of 5 mg/mL) was added to each well.”
# [11] = tested on: S. aureus ATCC 25923; assay: Antibacterial MIC assay, S. aureus ATCC 25923; format: cell-based, Staphylococcus aureus; details: Staphylococcus aureus, ATCC25923; 18 h, visual inspection
# Experimental: (§6) The antibacterial effect of the complex was tested against the Gram-negative strain Escherichia coli (E. coli) ATCC 25922, the Gram-positive reference strain Staphylococcus aureus (S. aureus) ATCC 25923, and the methicillin-resistant S. aureus MRSA ATCC 43300 strain. MRSA strains are responsible for several difficult-to-treat hospital-acquired infections.
# (§7) The following bacterial strains were used in our experiments: Gram-positive S. aureus American Type Culture Collection (ATCC) 25923 as the methicillin-susceptible reference bacterial strain; methicillin-resistant S. aureus ATCC 43300 (MRSA) strain; E. coli ATCC 25922 as a Gram-negative bacterial strain.
# (§8) MIC values of the complexes were determined in 96-well plates based on the Clinical and Laboratory Standard Institute guidelines (CLSI guidelines). The stock solutions of the compound (dissolved in DMSO at 5 mM concentration) were diluted in 100 μL of Mueller Hinton Broth. Then, 10^–4 dilution of an overnight bacterial culture in 100 μL of medium was added to each well, with the exception of the medium control wells.
# [12] = tested on: S. aureus MRSA ATCC 43300; assay: Antibacterial MIC assay, S. aureus MRSA ATCC 43300; format: cell-based, Staphylococcus aureus; details: Staphylococcus aureus, 18 h, read-out: MIC S. aureus MRSA ATCC 43300
# Experimental: as §6, §7, §8
# [13] = tested on: E. coli ATCC 25922; assay: Antibacterial MIC assay, E. coli ATCC 25922; format: cell-based, Escherichia coli; details: Escherichia coli, ATCC25922, 18 h, read-out: MIC E. coli ATCC 25922
# Experimental: as §6, §7, §8
# T3 sequence (P07711 114-333): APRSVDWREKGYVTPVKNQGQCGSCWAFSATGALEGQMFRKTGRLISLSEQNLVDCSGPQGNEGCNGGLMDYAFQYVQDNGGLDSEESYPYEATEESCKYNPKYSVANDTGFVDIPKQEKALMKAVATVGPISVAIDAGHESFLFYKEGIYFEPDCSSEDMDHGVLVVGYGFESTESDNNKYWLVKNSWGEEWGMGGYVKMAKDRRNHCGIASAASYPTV
# T4 sequence (O60911 114-334): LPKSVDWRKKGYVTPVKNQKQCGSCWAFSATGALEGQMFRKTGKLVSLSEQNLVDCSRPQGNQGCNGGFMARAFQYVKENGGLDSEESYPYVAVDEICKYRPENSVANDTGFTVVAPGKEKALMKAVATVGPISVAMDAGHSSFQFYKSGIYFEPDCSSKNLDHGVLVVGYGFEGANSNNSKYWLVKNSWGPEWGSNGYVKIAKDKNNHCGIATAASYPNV
# T5 sequence (P02768 25-609): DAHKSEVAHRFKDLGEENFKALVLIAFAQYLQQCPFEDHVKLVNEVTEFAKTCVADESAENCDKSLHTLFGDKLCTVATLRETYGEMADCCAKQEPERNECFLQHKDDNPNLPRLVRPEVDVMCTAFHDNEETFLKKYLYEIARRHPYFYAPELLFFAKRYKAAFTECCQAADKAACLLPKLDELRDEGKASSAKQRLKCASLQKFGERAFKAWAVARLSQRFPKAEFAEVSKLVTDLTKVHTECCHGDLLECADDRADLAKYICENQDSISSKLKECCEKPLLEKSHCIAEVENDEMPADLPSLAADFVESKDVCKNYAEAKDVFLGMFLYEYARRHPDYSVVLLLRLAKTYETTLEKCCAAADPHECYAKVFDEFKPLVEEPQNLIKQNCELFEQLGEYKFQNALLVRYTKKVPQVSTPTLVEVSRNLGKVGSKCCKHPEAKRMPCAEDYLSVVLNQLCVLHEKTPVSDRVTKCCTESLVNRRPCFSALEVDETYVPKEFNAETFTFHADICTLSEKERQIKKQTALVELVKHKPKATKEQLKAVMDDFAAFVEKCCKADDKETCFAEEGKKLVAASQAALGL
compound,measurement,setting,value
"Cc1ccc(C(C)C)cc1.[Cl-].[O-][n+]1ccccc1[S-].[Ru+2] [[Ru(cym)(pth)Cl], [ruthenium(η^6-p-cymene)(pyrithionato)(chlorido)]]",relative inhibition cathepsin B endopeptidase,[1],9.4 ± 1.8%
same,relative inhibition cathepsin B exopeptidase,[2],5.4 ± 7.2%
same,relative inhibition cathepsin L,[3],1.5 ± 1.5%
same,relative inhibition cathepsin V,[4],1.7 ± 5.7%
same,log KQ quenching constant,[5],5.81
same,MIC S. aureus strain,[6],50 µM
same,inhibition of growth of the HSV-2 virus,[7],did not inhibit the growth of the HSV-2 virus
"[O-][n+]1ccccc1S [pthH, Pyrithione]",inhibition at 50 µM,"[1]; pH 6, read-out: relative inhibition cathepsin B endopeptidase",4.3 ± 2.3%
same,relative inhibition cathepsin B exopeptidase,[2],n.i. ^a
same,inhibition at 50 µM,"[3]; pH 5.5, read-out: relative inhibition cathepsin L",0.5 ± 1.9%
same,inhibition at 50 µM,"[4]; pH 5.5, read-out: relative inhibition cathepsin V",2.3 ± 3.2%
[Re(CO)3(pth)(H2O)] [complex 4a],pKa (deprotonation of coordinated aqua ligand),"[8]; 0.1 M KCl, 25.0 °C",10.27 ± 0.01
same,pKa (deprotonation of coordinated aqua ligand),[8]; 0.1 M KNO3,10.15 ± 0.01
same,fraction of aqua complex,"[8]; pH = 7.4, based on the pKa values",100%
"COc1cccc2c1C(=O)c1c(O)c3c(c(O)c1C2=O)C[C@@](O)(C(=O)CO)C[C@@H]3O[C@H]1C[C@H](N)[C@H](O)[C@H](C)O1 [doxorubicin, reference compound]",IC50,"[9]; COLO 205, 72 h incubation, MTT",584 ± 55 nM
same,IC50,[10],244 ± 26 nM
"N#Cc1ccccc1 [benzonitrile, reference compound]",IC50,"[9]; COLO 205, 72 h",> 100000 nM
same,MIC,[11],> 100 µM
same,MIC,[12],> 100 µM
same,MIC,[13],> 100 µM
"[C-]#[O+].[C-]#[O+].[C-]#[O+].[C-]#[O+].[C-]#[O+].[Cl][Re] [[Re(CO)5Cl], rhenium(I) pentacarbonyl chloride]",relative inhibition cathepsin B endopeptidase,[1],6.7 ± 0.7%
same,relative inhibition cathepsin B exopeptidase,[2],12.2 ± 3.0%
same,relative inhibition cathepsin L,[3],1.6 ± 6.5%
same,relative inhibition cathepsin V,[4],4.6 ± 0.3%
zinc pyrithione,relative inhibition cathepsin B endopeptidase,[1],8.7 ± 2.2%
same,relative inhibition cathepsin B exopeptidase,[2],11.1 ± 2.2%
same,relative inhibition cathepsin L,[3],1.3 ± 2.4%
same,relative inhibition cathepsin V,[4],1.9 ± 3.0%
